This note sets out measurements from patent publication US20230365608A1 (priority 2019, published 2023).

The subject of assay [1] is Influenza strains A/WSN/33 (H1N1). Put plainly: Influenza A/WSN/33 (H1N1) antiviral assay in A549 cells (MUNANA neuraminidase readout). It is filed as cell-based, Influenza A virus (H1N1); human lung carcinoma A549 cells. The conditions noted are these: Influenza A virus, compound 24 h before infection, 250 IU/well, 20 h infection. On the procedure:
(§1) EC50 [uM] as Measured Using Two Cell Lines: WSN/33 (H1N1) A549 and MDCK
1. Human lung carcinoma A549 cells (ATCC, Manassas, VA) were plated at a density of 5×10^4 cells/ml (5×10^3 cells/well) in maintenance media (Ham's F12 media supplemented with 10% FBS, 1% penicillin/streptomycin, 1% HEPES, 1% Glutamine and 1% non-essential amino acids (all Mediatech, Manassas, VA) in 96-well plates. After 24 hours, serially diluted compounds in assay media (Ham's F12 supplemented with 0.3FBS, 1% penicillin/streptomycin, 1% HEPES, 1% Glutamine and 1% non-essential amino acids) were added to cells and incubated for an additional 24 hours. Cells were infected with 250 IU/well of Influenza strains A/WSN/33 (H1N1) (Virapur, San Diego CA) and incubated for 20 h at 37° C., 5% CO2. The cell culture supernatant was aspirated off and 50 μl 25 μM 2′-(4-Methylumbelliferyl)-a-D-N-acetylneuraminic acid (MUNANA, Sigma-Aldrich) dissolved in 33 mM MES, pH 6.5 (Emerald Biosystems, Bainbridge Island, WA) was added to the cells. After incubation for 45 min at 30° C., reactions were stopped by addition of 150 μL stop solution (100 mM glycine, pH 10.5, 25% ethanol, all Sigma-Aldrich). Fluorescence was measured with excitation and emission filters of 355 and 460 nm, respectively, on a Victor X3 multi-label plate reader (Perkin Elmer, Waltham, MA). Cytotoxicity of uninfected parallel cultures was determined by addition of 100 μL CellTiter-Glo® reagent (Promega, Madison, WI), and incubation for 10 min at room temperature. Luminescence was measured on a Victor X3 multi-label plate reader.

For assay [2] the test system is unchanged. Put plainly: Influenza A/WSN/33 (H1N1) antiviral assay in MDCK cells (MUNANA neuraminidase readout). Type of assay: cell-based. The note with it: Influenza A virus, in Canis lupus familiaris, compound 24 h before infection, 250 IU/well, 20 h infection. On the procedure:
as §1
2. Alternatively, Madin-Darby canine kidney epithelial cells (MDCK, ATCC), were plated at a density of 7.5×10^4 cells/ml (7.5×10^3 cells/well) in maintenance media (DMEM with same supplements as above) in 96-well plates. After 24 hours, serially diluted compounds in assay media (MEM supplemented with 0.3FBS, 1% penicillin/streptomycin, 1% HEPES, 1% Glutamine and 1% non-essential amino acids) were added to cells and incubated for an additional 24 hours. Cells were infected with 250 IU/well of Influenza strains A/WSN/33 (H1N1) and incubated for 20 h at 37° C., 5% CO2. The cell culture supernatant was aspirated off and 50 μL 25 μM 2′-(4-Methylumbelliferyl)-a-D-N-acetyl neuraminic acid (MUNANA, Sigma-Aldrich) dissolved in 33 mM MES, pH 6.5 (Emerald Biosystems, Bainbridge Island, WA) was added to the cells. After incubation for 45 min at 30° C., reactions were stopped by addition of 150 μl stop solution (100 mM glycine, pH 10.5, 25% ethanol, all Sigma-Aldrich). Fluorescence was measured with excitation and emission filters of 355 and 460 nm, respectively, on a Victor X3 multi-label plate reader (Perkin Elmer, Waltham, MA). Cytotoxicity of uninfected parallel cultures was determined by addition of 100 μL CellTiter-Glo® reagent (Promega, Madison, WI), and incubation for 10 min at room temperature. Luminescence was measured on a Victor X3 multi-label plate reader.

Each structure is given as a SMILES string.

Broadly, the EC50 is the concentration needed to bring the measured effect to its halfway point. With `NC(=O)c1nsc([C@@H]2O[C@H](CO)[C@@H](O)[C@H]2O)n1` [Example 1, 5-((2R,3R,4S,5R)-3,4-Dihydroxy-5-(hydroxymethyl)tetrahydrofuran-2-yl)-1,2,4-thiadiazole-3-carboxamide], in assay [1], the concentration for a half-maximal effect (EC50) is 1.35 µM.
Still for that read-out and setting: next, `CC(C)C(=O)OC[C@H]1O[C@@H](c2nc(C(N)=O)ns2)[C@H](O)[C@@H]1O` [Example 4, ((2R,3S,4R,5R)-5-(3-Carbamoyl-1,2,4-thiadiazol-5-yl)-3,4-dihydroxytetrahydrofuran-2-yl)methyl isobutyrate]: 15.1 µM.
For `NC(=O)c1nc([C@@H]2O[C@H](CO)[C@@H](O)[C@H]2O)sc1F` [Example 3, 2-((2R,3R,4S,5R)-3,4-Dihydroxy-5-(hydroxymethyl)tetrahydrofuran-2-yl)-5-fluorothiazole-4-carboxamide], the EC50 in assay [1] came out at 40.7 µM; in assay [2], 10.1 µM.
Regarding `CC(C)[C@H](N)C(=O)OC[C@H]1O[C@@H](c2nc(C(N)=O)ns2)[C@H](O)[C@@H]1O` [Example 7, ((2R,3S,4R,5R)-5-(3-Carbamoyl-1,2,4-thiadiazol-5-yl)-3,4-dihydroxytetrahydrofuran-2-yl)methyl valinate], the EC50 in assay [1] amounted to 1.35 µM.
Regarding `NC(=O)c1cc([C@@H]2O[C@H](CO)[C@@H](O)[C@H]2O)sn1` [Example 2, 5-((2R,3R,4S,5R)-3,4-Dihydroxy-5-(hydroxymethyl)tetrahydrofuran-2-yl)isothiazole-3-carboxamide], the values for the concentration for a half-maximal effect (EC50) in assay [1] and in assay [2] were 54.7 µM and 0.32 µM, respectively.
With `CC(C)OC(=O)OCOP(=O)(OCOC(=O)OC(C)C)OC[C@H]1O[C@@H](c2nc(C(N)=O)ns2)[C@H](O)[C@@H]1O` [Example 6], the results for the EC50 in assay [1] and in assay [2] were 4.66 µM and 1.85 µM, respectively.
